Measured values from PubChem BioAssay AID2060898 (Molecular Pharmacology Branch, DTP, NCI, 2025).

System: 616215-338-R-J1-PDC complex spheroid viability
Assay: Anticancer human tumor 616215-338-R-J1-PDC patient-derived colon adenocarcinoma cell line growth inhibition [RAS]
Conditions: for IC50: curve of first compound; for viability, T/C: stronger effect = lower value
In short: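 Agents were tested in combination matrices in half-log decrements from a top concentration at or near clinical Cmax (10 microM if undetermined). Targets were multi-cell spheroids of tumour lines plus HUVEC and MSC stromal cells.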

[1] = second compound 0.00316 µM, first compound 0.0316 µM
[2] = second compound 0.00316 µM, first compound 0.1 µM
[3] = second compound 0.00316 µM, first compound 0.316 µM
[4] = second compound 0.00316 µM, first compound 1 µM
[5] = second compound 0.00316 µM, first compound 3.16 µM
[6] = second compound 0.00316 µM, first compound 10 µM
[7] = second compound 0.01 µM, first compound 0.0316 µM
[8] = second compound 0.01 µM, first compound 0.1 µM
[9] = second compound 0.01 µM, first compound 0.316 µM
[10] = second compound 0.01 µM, first compound 1 µM
[11] = second compound 0.01 µM, first compound 3.16 µM
[12] = second compound 0.01 µM, first compound 10 µM
[13] = second compound 0.0316 µM, first compound 0.0316 µM
[14] = second compound 0.0316 µM, first compound 0.1 µM
[15] = second compound 0.0316 µM, first compound 0.316 µM
[16] = second compound 0.0316 µM, first compound 1 µM
[17] = second compound 0.0316 µM, first compound 3.16 µM
[18] = second compound 0.0316 µM, first compound 10 µM
[19] = second compound 0.1 µM, first compound 0.0316 µM
[20] = second compound 0.1 µM, first compound 0.1 µM
[21] = second compound 0.1 µM, first compound 0.316 µM
[22] = second compound 0.1 µM, first compound 1 µM
[23] = second compound 0.1 µM, first compound 3.16 µM
[24] = second compound 0.1 µM, first compound 10 µM
[25] = second compound 0.316 µM, first compound 0.0316 µM
[26] = second compound 0.316 µM, first compound 0.1 µM
[27] = second compound 0.316 µM, first compound 0.316 µM
[28] = second compound 0.316 µM, first compound 1 µM
[29] = second compound 0.316 µM, first compound 3.16 µM
[30] = second compound 0.316 µM, first compound 10 µM
[31] = second compound 1 µM, first compound 0.0316 µM
[32] = second compound 1 µM, first compound 0.1 µM
[33] = second compound 1 µM, first compound 0.316 µM
[34] = second compound 1 µM, first compound 1 µM
[35] = second compound 1 µM, first compound 3.16 µM
[36] = second compound 1 µM, first compound 10 µM
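Note: spheroids exposed to agents for seven days before viability readout.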
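Throughout, for viability, T/C: 100% = DMSO vehicle control viability.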

In the case of `CC(C)NCC(C(=O)N1CCN(c2ncnc3c2C(C)CC3O)CC1)c1ccc(Cl)cc1` (stereo unspecified) + C=CC(=O)N1CCN(c2nc(OCC3CCCN3C)nc3c(F)c(-c4nc(N)cc(C)c4C(F)(F)F)c(Cl)cc23)C(C)C1, the IC50 (second compound 0.00316 µM) is reported as 9.08 µM, the IC50 (second compound 0.01 µM) is reported as 9.02 µM and the IC50 (second compound 0.0316 µM) is reported as > 10 µM. The IC50 (second compound 0.1 µM) was 10 µM, the IC50 (second compound 0.316 µM) was 9.74 µM and the IC50 (second compound 1 µM) was 9.55 µM. The viability, T/C [1] was 97.1%, the viability, T/C [2] was 110% and the viability, T/C [3] was 106%. It also gave a viability, T/C [4] of 112%, a viability, T/C [5] of 95% and a viability, T/C [6] of 45.9%. It also gave a viability, T/C [7] of 105%, a viability, T/C [8] of 98.1% and a viability, T/C [9] of 102%. For the same compound, the viability, T/C [10] was 116%, the viability, T/C [11] was 95.1% and the viability, T/C [12] was 45.5%. For the same compound, the viability, T/C [13] was 110%, the viability, T/C [14] was 114% and the viability, T/C [15] was 105%. The viability, T/C [16] was 115%, the viability, T/C [17] was 99.9% and the viability, T/C [18] was 54%. It also gave a viability, T/C [19] of 111%, a viability, T/C [20] of 106% and a viability, T/C [21] of 108%. For the same compound, the viability, T/C [22] was 107%, the viability, T/C [23] was 98.2% and the viability, T/C [24] was 50%. For the same compound, the viability, T/C [25] was 103%, the viability, T/C [26] was 106% and the viability, T/C [27] was 104%. It also gave a viability, T/C [28] of 108%, a viability, T/C [29] of 93.4% and a viability, T/C [30] of 48.5%. It also gave a viability, T/C [31] of 104%, a viability, T/C [32] of 94.9% and a viability, T/C [33] of 103%. The viability, T/C [34] was 117%, the viability, T/C [35] was 104% and the viability, T/C [36] was 47.7%.

`CC(C)n1nc(-c2ccc3oc(N)nc3c2)c2c(N)ncnc21` + C=CC(=O)N1CCN(c2nc(OCC3CCCN3C)nc3c(F)c(-c4nc(N)cc(C)c4C(F)(F)F)c(Cl)cc23)C(C)C1 was tested, and the IC50 (second compound 0.00316 µM) was > 0.1 µM, the IC50 (second compound 0.01 µM) was > 0.1 µM and the IC50 (second compound 0.0316 µM) was > 0.1 µM. For the same compound, the IC50 (second compound 0.1 µM) was > 0.1 µM, the IC50 (second compound 0.316 µM) was > 0.1 µM and the IC50 (second compound 1 µM) was > 0.1 µM. It also gave a viability, T/C (second compound 0.00316 µM, first compound 0.000316 µM) of 107%, a viability, T/C (second compound 0.00316 µM, first compound 0.001 µM) of 109% and a viability, T/C (second compound 0.00316 µM, first compound 0.00316 µM) of 99.9%. For the same compound, the viability, T/C (second compound 0.00316 µM, first compound 0.01 µM) was 119%, the viability, T/C [1] was 120% and the viability, T/C [2] was 77.9%. For the same compound, the viability, T/C (second compound 0.01 µM, first compound 0.000316 µM) was 100%, the viability, T/C (second compound 0.01 µM, first compound 0.001 µM) was 111% and the viability, T/C (second compound 0.01 µM, first compound 0.00316 µM) was 107%. It also gave a viability, T/C (second compound 0.01 µM, first compound 0.01 µM) of 119%, a viability, T/C [7] of 117% and a viability, T/C [8] of 70.7%. The viability, T/C (second compound 0.0316 µM, first compound 0.000316 µM) was 105%, the viability, T/C (second compound 0.0316 µM, first compound 0.001 µM) was 109% and the viability, T/C (second compound 0.0316 µM, first compound 0.00316 µM) was 113%. For the same compound, the viability, T/C (second compound 0.0316 µM, first compound 0.01 µM) was 111%, the viability, T/C [13] was 114% and the viability, T/C [14] was 71.7%. The viability, T/C (second compound 0.1 µM, first compound 0.000316 µM) was 110%, the viability, T/C (second compound 0.1 µM, first compound 0.001 µM) was 100% and the viability, T/C (second compound 0.1 µM, first compound 0.00316 µM) was 111%. It also gave a viability, T/C (second compound 0.1 µM, first compound 0.01 µM) of 116%, a viability, T/C [19] of 109% and a viability, T/C [20] of 72.2%. The viability, T/C (second compound 0.316 µM, first compound 0.000316 µM) was 109%, the viability, T/C (second compound 0.316 µM, first compound 0.001 µM) was 108% and the viability, T/C (second compound 0.316 µM, first compound 0.00316 µM) was 111%. For the same compound, the viability, T/C (second compound 0.316 µM, first compound 0.01 µM) was 109%, the viability, T/C [25] was 129% and the viability, T/C [26] was 71.3%. It also gave a viability, T/C (second compound 1 µM, first compound 0.000316 µM) of 109%, a viability, T/C (second compound 1 µM, first compound 0.001 µM) of 99.6% and a viability, T/C (second compound 1 µM, first compound 0.00316 µM) of 118%. It also gave a viability, T/C (second compound 1 µM, first compound 0.01 µM) of 118%, a viability, T/C [31] of 115% and a viability, T/C [32] of 70%.

With `CC(Nc1ccc2c(c1)OCCn1cc(N3C(=O)OCC3C(F)F)nc1-2)C(N)=O` (stereo unspecified) + C=CC(=O)N1CCN(c2nc(OCC3CCCN3C)nc3c(F)c(-c4nc(N)cc(C)c4C(F)(F)F)c(Cl)cc23)C(C)C1 the IC50 (second compound 0.00316 µM) was > 10 µM, the IC50 (second compound 0.01 µM) was > 10 µM and the IC50 (second compound 0.0316 µM) was > 10 µM. For the same compound, the IC50 (second compound 0.1 µM) was > 10 µM, the IC50 (second compound 0.316 µM) was > 10 µM and the IC50 (second compound 1 µM) was > 10 µM. For the same compound, the viability, T/C [1] was 106%, the viability, T/C [2] was 122% and the viability, T/C [3] was 109%. It also gave a viability, T/C [4] of 101%, a viability, T/C [5] of 100% and a viability, T/C [6] of 82.2%. The viability, T/C [7] was 106%, the viability, T/C [8] was 115% and the viability, T/C [9] was 110%. It also gave a viability, T/C [10] of 111%, a viability, T/C [11] of 105% and a viability, T/C [12] of 85.9%. It also gave a viability, T/C [13] of 110%, a viability, T/C [14] of 114% and a viability, T/C [15] of 119%. The viability, T/C [16] was 115%, the viability, T/C [17] was 93.3% and the viability, T/C [18] was 80.1%. For the same compound, the viability, T/C [19] was 111%, the viability, T/C [20] was 108% and the viability, T/C [21] was 107%. It also gave a viability, T/C [22] of 131%, a viability, T/C [23] of 101% and a viability, T/C [24] of 77.9%. The viability, T/C [25] was 109%, the viability, T/C [26] was 103% and the viability, T/C [27] was 111%. It also gave a viability, T/C [28] of 109%, a viability, T/C [29] of 103% and a viability, T/C [30] of 86.2%. It also gave a viability, T/C [31] of 106%, a viability, T/C [32] of 107% and a viability, T/C [33] of 109%. The viability, T/C [34] was 119%, the viability, T/C [35] was 98% and the viability, T/C [36] was 73.4%.
